From PubChem BioAssay AID1963451 (Molecular Pharmacology Branch, DTP, NCI, 2024)
Values belong to the compound of their own block, whether it stands above or below them.

Tested on: 521955-158-R6-J3-PDC complex spheroid growth, % test/control
Experiment: Anticancer human tumor 521955-158-R6-J3-PDC patient-derived pancreatic carcinoma cell line growth inhibition [Asc]
Settings: for IC50: curve of first compound; for viability, T/C: stronger effect = lower value
In short: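 Tumor cells were grown as complex spheroids with human endothelial cells (HUVEC) and human mesenchymal stem cells as stroma. Agents were tested alone and in combination, in half-log steps down from the clinical Cmax, or from 10 microM where Cmax was unknown.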

[1] = second compound 0.00949 µM, first compound 0.0316 µM
[2] = second compound 0.00949 µM, first compound 0.1 µM
[3] = second compound 0.00949 µM, first compound 0.316 µM
[4] = second compound 0.00949 µM, first compound 1 µM
[5] = second compound 0.03 µM, first compound 0.0316 µM
[6] = second compound 0.03 µM, first compound 0.1 µM
[7] = second compound 0.03 µM, first compound 0.316 µM
[8] = second compound 0.03 µM, first compound 1 µM
[9] = second compound 0.0949 µM, first compound 0.0316 µM
[10] = second compound 0.0949 µM, first compound 0.1 µM
[11] = second compound 0.0949 µM, first compound 0.316 µM
[12] = second compound 0.0949 µM, first compound 1 µM
[13] = second compound 0.3 µM, first compound 0.0316 µM
[14] = second compound 0.3 µM, first compound 0.1 µM
[15] = second compound 0.3 µM, first compound 0.316 µM
[16] = second compound 0.3 µM, first compound 1 µM
[17] = second compound 0.949 µM, first compound 0.0316 µM
[18] = second compound 0.949 µM, first compound 0.1 µM
[19] = second compound 0.949 µM, first compound 0.316 µM
[20] = second compound 0.949 µM, first compound 1 µM
[21] = second compound 3 µM, first compound 0.0316 µM
[22] = second compound 3 µM, first compound 0.1 µM
[23] = second compound 3 µM, first compound 0.316 µM
[24] = second compound 3 µM, first compound 1 µM
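Note: spheroids exposed to compounds for 7 days.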
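Throughout, for viability, T/C: 100% = DMSO vehicle control wells.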

IC50 (second compound 0.00949 µM): > 10 µM | IC50 (second compound 0.03 µM): > 10 µM | IC50 (second compound 0.0949 µM): > 10 µM | IC50 (second compound 0.3 µM): > 10 µM | IC50 (second compound 0.949 µM): > 10 µM | IC50 (second compound 3 µM): > 10 µM
Structure (SMILES): C=CC(=O)N1CCN(c2nc(=O)n(-c3c(C)ccnc3C(C)C)c3nc(-c4c(O)cccc4F)c(F)cc23)C(C)C1 (stereo unspecified) + CCN1C(C(=O)NC23CCC(C(=O)O)(CC2)CC3)C(c2cccc(Cl)c2F)C2(C(=O)Nc3cc(Cl)ccc32)C12CCCCC2
viability, T/C [1]: 121% | viability, T/C [2]: 111% | viability, T/C [3]: 107% | viability, T/C [4]: 106% | viability, T/C (second compound 0.00949 µM, first compound 3.16 µM): 114% | viability, T/C (second compound 0.00949 µM, first compound 10 µM): 109% | viability, T/C [5]: 94.3% | viability, T/C [6]: 113% | viability, T/C [7]: 103% | viability, T/C [8]: 114% | viability, T/C (second compound 0.03 µM, first compound 3.16 µM): 101% | viability, T/C (second compound 0.03 µM, first compound 10 µM): 95.7% | viability, T/C [9]: 119% | viability, T/C [10]: 91.2% | viability, T/C [11]: 118% | viability, T/C [12]: 103% | viability, T/C (second compound 0.0949 µM, first compound 3.16 µM): 108% | viability, T/C (second compound 0.0949 µM, first compound 10 µM): 101% | viability, T/C [13]: 101% | viability, T/C [14]: 115% | viability, T/C [15]: 107% | viability, T/C [16]: 112% | viability, T/C (second compound 0.3 µM, first compound 3.16 µM): 109% | viability, T/C (second compound 0.3 µM, first compound 10 µM): 103% | viability, T/C [17]: 108% | viability, T/C [18]: 105% | viability, T/C [19]: 102% | viability, T/C [20]: 107% | viability, T/C (second compound 0.949 µM, first compound 3.16 µM): 121% | viability, T/C (second compound 0.949 µM, first compound 10 µM): 92.2% | viability, T/C [21]: 91.8% | viability, T/C [22]: 95.8% | viability, T/C [23]: 97.7% | viability, T/C [24]: 92.5% | viability, T/C (second compound 3 µM, first compound 3.16 µM): 102% | viability, T/C (second compound 3 µM, first compound 10 µM): 94.3%

IC50 (second compound 0.00949 µM): > 1 µM | IC50 (second compound 0.03 µM): > 1 µM | IC50 (second compound 0.0949 µM): > 1 µM | IC50 (second compound 0.3 µM): > 1 µM | IC50 (second compound 0.949 µM): > 1 µM | IC50 (second compound 3 µM): > 1 µM
Structure (SMILES): CNC(C)C(=O)NC1CN(S(=O)(=O)c2cccc(S(=O)(=O)N3CCC4CCC(C(=O)NC(c5ccccc5)c5ccccc5)N4C(=O)C(NC(=O)C(C)NC)C3)c2)CCC2CCC(C(=O)NC(c3ccccc3)c3ccccc3)N2C1=O (stereo unspecified) + CCN1C(C(=O)NC23CCC(C(=O)O)(CC2)CC3)C(c2cccc(Cl)c2F)C2(C(=O)Nc3cc(Cl)ccc32)C12CCCCC2
viability, T/C (second compound 0.00949 µM, first compound 0.00316 µM): 110% | viability, T/C (second compound 0.00949 µM, first compound 0.01 µM): 95.2% | viability, T/C [1]: 83.7% | viability, T/C [2]: 89.8% | viability, T/C [3]: 89.7% | viability, T/C [4]: 89.7% | viability, T/C (second compound 0.03 µM, first compound 0.00316 µM): 91.8% | viability, T/C (second compound 0.03 µM, first compound 0.01 µM): 96% | viability, T/C [5]: 113% | viability, T/C [6]: 101% | viability, T/C [7]: 69% | viability, T/C [8]: 81.5% | viability, T/C (second compound 0.0949 µM, first compound 0.00316 µM): 102% | viability, T/C (second compound 0.0949 µM, first compound 0.01 µM): 89.9% | viability, T/C [9]: 92.3% | viability, T/C [10]: 86.9% | viability, T/C [11]: 76.9% | viability, T/C [12]: 86.2% | viability, T/C (second compound 0.3 µM, first compound 0.00316 µM): 96.2% | viability, T/C (second compound 0.3 µM, first compound 0.01 µM): 111% | viability, T/C [13]: 100% | viability, T/C [14]: 99.8% | viability, T/C [15]: 93.5% | viability, T/C [16]: 95% | viability, T/C (second compound 0.949 µM, first compound 0.00316 µM): 106% | viability, T/C (second compound 0.949 µM, first compound 0.01 µM): 85.1% | viability, T/C [17]: 93.7% | viability, T/C [18]: 101% | viability, T/C [19]: 96.8% | viability, T/C [20]: 109% | viability, T/C (second compound 3 µM, first compound 0.00316 µM): 95% | viability, T/C (second compound 3 µM, first compound 0.01 µM): 96% | viability, T/C [21]: 108% | viability, T/C [22]: 86.2% | viability, T/C [23]: 96.6% | viability, T/C [24]: 80.8%

IC50 (second compound 0.00316 µM): > 3 µM | IC50 (second compound 0.01 µM): > 3 µM | IC50 (second compound 0.0316 µM): > 3 µM | IC50 (second compound 0.1 µM): > 3 µM | IC50 (second compound 0.316 µM): > 3 µM | IC50 (second compound 1 µM): > 3 µM
Structure (SMILES): CCN1C(C(=O)NC23CCC(C(=O)O)(CC2)CC3)C(c2cccc(Cl)c2F)C2(C(=O)Nc3cc(Cl)ccc32)C12CCCCC2 (stereo unspecified) + CNC(C)C(=O)NC1CN(S(=O)(=O)c2cccc(S(=O)(=O)N3CCC4CCC(C(=O)NC(c5ccccc5)c5ccccc5)N4C(=O)C(NC(=O)C(C)NC)C3)c2)CCC2CCC(C(=O)NC(c3ccccc3)c3ccccc3)N2C1=O
viability, T/C (second compound 0.00316 µM, first compound 0.00949 µM): 110% | viability, T/C (second compound 0.00316 µM, first compound 0.03 µM): 110% | viability, T/C (second compound 0.00316 µM, first compound 0.0949 µM): 89.7% | viability, T/C (second compound 0.00316 µM, first compound 0.3 µM): 111% | viability, T/C (second compound 0.00316 µM, first compound 0.949 µM): 99.5% | viability, T/C (second compound 0.00316 µM, first compound 3 µM): 97.5% | viability, T/C (second compound 0.01 µM, first compound 0.00949 µM): 111% | viability, T/C (second compound 0.01 µM, first compound 0.03 µM): 90.1% | viability, T/C (second compound 0.01 µM, first compound 0.0949 µM): 99.4% | viability, T/C (second compound 0.01 µM, first compound 0.3 µM): 98.8% | viability, T/C (second compound 0.01 µM, first compound 0.949 µM): 102% | viability, T/C (second compound 0.01 µM, first compound 3 µM): 103% | viability, T/C (second compound 0.0316 µM, first compound 0.00949 µM): 106% | viability, T/C (second compound 0.0316 µM, first compound 0.03 µM): 78.3% | viability, T/C (second compound 0.0316 µM, first compound 0.0949 µM): 91.3% | viability, T/C (second compound 0.0316 µM, first compound 0.3 µM): 96.3% | viability, T/C (second compound 0.0316 µM, first compound 0.949 µM): 85.9% | viability, T/C (second compound 0.0316 µM, first compound 3 µM): 85.3% | viability, T/C (second compound 0.1 µM, first compound 0.00949 µM): 86.8% | viability, T/C (second compound 0.1 µM, first compound 0.03 µM): 92.4% | viability, T/C (second compound 0.1 µM, first compound 0.0949 µM): 81.9% | viability, T/C (second compound 0.1 µM, first compound 0.3 µM): 92% | viability, T/C (second compound 0.1 µM, first compound 0.949 µM): 93.3% | viability, T/C (second compound 0.1 µM, first compound 3 µM): 96.4% | viability, T/C (second compound 0.316 µM, first compound 0.00949 µM): 70.1% | viability, T/C (second compound 0.316 µM, first compound 0.03 µM): 82.4% | viability, T/C (second compound 0.316 µM, first compound 0.0949 µM): 97.7% | viability, T/C (second compound 0.316 µM, first compound 0.3 µM): 83.3% | viability, T/C (second compound 0.316 µM, first compound 0.949 µM): 82.1% | viability, T/C (second compound 0.316 µM, first compound 3 µM): 88.2% | viability, T/C (second compound 1 µM, first compound 0.00949 µM): 85.2% | viability, T/C (second compound 1 µM, first compound 0.03 µM): 102% | viability, T/C (second compound 1 µM, first compound 0.0949 µM): 90.1% | viability, T/C (second compound 1 µM, first compound 0.3 µM): 83% | viability, T/C (second compound 1 µM, first compound 0.949 µM): 84.9% | viability, T/C (second compound 1 µM, first compound 3 µM): 96.4%
